Patent publication US20090099140A1, “20-Alkyl, Gemini Vitamin D3 Compounds and Methods of Use Thereof” (BioXell S.p.A., priority 2005, published 2009)
Read-outs that look alike come from different tables or passages of the source. Blank lines part the entries; values can stand above or below the compound they belong to.

How the values were obtained:
[1] = Determination of maximum tolerated dose (MTD), highest oral dose without hypercalcemia (serum calcium); format: in vivo; conditions: in vivo, po
Protocol: The maximum tolerated dose of the vitamin D3 compounds of the invention were determined in eight week-old female C57BL/6 mice (3 mice/group) dosed orally (0.1 ml/mouse) with various concentrations of Vitamin D3 analogs daily for four days. Analogs were formulated in miglyol for a final concentration of 10, 30, 100 and 300 μg/kg when given at 0.1 ml/mouse p.o. daily. Blood for serum calcium assay was drawn by tail bleed on day five, the final day of the study. Serum calcium levels were determined using a colorimetric assay (Sigma Diagnostics, procedure no. 597). The highest dose of analog tolerated without inducing hypercalcemia (serum calcium >10.7 mg/dl) was taken as the maximum tolerated does (MTD).

[2] = test system: IFN-γ production; test: IFN-γ production by allogeneic T cell activation in the mixed leukocyte response (MLR); format: cell-based; conditions: MLR of allogeneic PBMC from 2 different donors, 5 days, IFN-γ by ELISA, 50% inhibition of IFN-γ production
Protocol: Immature dendritic cells (DC) were prepared as described in Romani, N. et al., J. Immunol. Meth. 196:137. IFN-γ production by allogeneic T cell activation in the mixed leukocyte response (MLR) was determined as described in Penna, G., et al., J. Immunol., 164: 2405-2411 (2000).
Briefly, peripheral blood mononuclear cells (PBMC) were separated from buffy coats by Ficoll gradient and the same number (3×105) of allogeneic PBMC from 2 different donors were co-cultured in 96-well flat-bottom plates. After 5 days, IFN-γ production in the MLR assay was measured by ELISA and the results expressed as amount (nM) of test compound required to induce 50% inhibition of IFN-γ production (IC50) (Table 1).

[3] = mouse, eight week-old female C57BL/6 mice, p.o. daily for four days in miglyol, highest dose without hypercalcemia (serum calcium >10.7 mg/dl) on day five, read-out: MTD (mice)

Compound: C=C1/C(=C\C=C2/CCC[C@@]3(C)C2CC[C@@H]3C(C)(CCCC(C)(C)O)CCCC(C)(C)O)CC(O)C[C@@H]1O (some centres unmarked) [Compound 1, 1,25-Dihydroxy-20-(4-hydroxy-4-methyl-pentyl)cholecalciferol]
MTD at 4 days [1, 3]: 3 µg/kg
IC50 ([2]; 120 h): 0.518 nM

Compound: CC(C)(O)CCCC(C)(CCCC(C)(C)O)[C@H]1CCC2/C(=C/C=C3/CC(O)C[C@H](O)C3)CCC[C@@]21C (some centres unmarked) [Compound 2, 1,25-Dihydroxy-20-(4-hydroxy-4-methyl-pentyl)-19-nor-cholecalciferol]
MTD at 4 days [1, 3]: < 30 µg/kg
IC50 ([2]; 120 h): 0.744 nM

Compound: C=C1/C(=C\C=C2/CCC[C@@]3(C)C2CC[C@@H]3C(C)(CCCC(C)(C)O)CCCC(C)(C)O)CC(O)C[C@@H]1F (stereo partly drawn) [Compound 3, 1α-Fluoro-25-hydroxy-20-(4-hydroxy-4-methyl-pentyl)-cholecalciferol]
MTD at 4 days ([1]; female, C57BL/6, mouse): > 300 µg/kg
IC50 ([2]; 120 h): 6.27 nM

Compound: C=C1/C(=C\C=C2/CCC[C@@]3(C)C2CC[C@@H]3[C@](C)(CC#CC(O)(C(F)(F)F)C(F)(F)F)CCCC(C)(C)O)CC(O)C[C@@H]1O (stereo partly drawn) [Compound 4, (20S)-1,25-Dihydroxy-20-(5,5,5-trifluoro-4-hydroxy-4-trifluoromethyl-pent-2-ynyl)cholecalciferol]
MTD at 4 days [1, 3]: 0.3 µg/kg
IC50 ([2]; 120 h): 0.049 nM

Compound: C=C1/C(=C\C=C2/CCC[C@@]3(C)C2CC[C@@H]3[C@](C)(C/C=C\C(O)(C(F)(F)F)C(F)(F)F)CCCC(C)(C)O)CC(O)C[C@@H]1O (stereo partly drawn) [Compound 5, (20S)-1,25-Dihydroxy-20-(5,5,5-trifluoro-4-hydroxy-4-trifluoromethyl-pent-(2Z)-enyl)cholecalciferol]
MTD at 4 days [1, 3]: 0.3 µg/kg
IC50 ([2]; 120 h): 0.042 nM

IC50 ([2]; 120 h): 0.038 nM
Compound: C=C1/C(=C\C=C2/CCC[C@@]3(C)C2CC[C@@H]3[C@@](C)(CC#CC(O)(C(F)(F)F)C(F)(F)F)CCCC(C)(C)O)C[C@@H](O)C[C@@H]1O (stereo partly drawn) [Compound 7, (20R)-1,25-Dihydroxy-20-(5,5,5-trifluoro-4-hydroxy-4-trifluoromethyl-pent-2-ynyl)-cholecalciferol]

Compound: C=C1/C(=C\C=C2/CCC[C@@]3(C)C2CC[C@@H]3[C@@](C)(C/C=C\C(O)(C(F)(F)F)C(F)(F)F)CCCC(C)(C)O)C[C@@H](O)C[C@@H]1O (stereo partly drawn) [Compound 8, (20R)-1,25-Dihydroxy-20-[(2Z)-5,5,5-trifluoro-4-hydroxy-4-trifluoromethyl-pent-2-enyl]-cholecalciferol]
MTD at 4 days [1, 3]: 0.3 µg/kg
IC50 ([2]; 120 h): 0.057 nM

Compound: C=C1/C(=C\C=C2/CCC[C@@]3(C)C2CC[C@@H]3[C@@](C)(C/C=C/C(O)(C(F)(F)F)C(F)(F)F)CCCC(C)(C)O)C[C@@H](O)C[C@@H]1O (stereo partly drawn) [Compound 9, (20R)-1,25-Dihydroxy-20-[(2E)-5,5,5-trifluoro-4-hydroxy-4-trifluoromethyl-pent-2-enyl]-cholecalciferol]
MTD at 4 days [1, 3]: 0.1 µg/kg
IC50 ([2]; 120 h): 0.049 nM

Compound: CC(C)(O)CCC[C@@](C)(CC#CC(O)(C(F)(F)F)C(F)(F)F)[C@H]1CCC2/C(=C/C=C3/CC(O)C[C@H](O)C3)CCC[C@@]21C (stereo partly drawn) [Compound 10, (20S)-1,25-Dihydroxy-20-(5,5,5-trifluoro-4-hydroxy-4-trifluoromethyl-pent-2-ynyl)-19-nor-cholecalciferol]
MTD at 4 days [1, 3]: 0.3 µg/kg
IC50 ([2]; 120 h): 0.0436 nM

Compound: CC(C)(O)CCC[C@@](C)(C/C=C\C(O)(C(F)(F)F)C(F)(F)F)[C@H]1CCC2/C(=C/C=C3/CC(O)C[C@H](O)C3)CCC[C@@]21C (stereo partly drawn) [Compound 11, (20S)-1,25-Dihydroxy-20-[(2Z)-5,5,5-trifluoro-4-hydroxy-4-trifluoromethyl-pent-2-enyl]-19-nor-cholecalciferol]
MTD at 4 days [1, 3]: 3 µg/kg
IC50 ([2]; 120 h): 0.253 nM

Compound: [2H]C([2H])([2H])C(O)(CCCC(C)(C/C=C/C(O)(C(F)(F)F)C(F)(F)F)[C@H]1CCC2/C(=C/C=C3/C[C@@H](O)C[C@H](O)C3=C)CCC[C@@]21C)C([2H])([2H])[2H] (stereo partly drawn) [Compound 19, 1,25-Dihydroxy-20S-20-(4-hydroxy-5,5,5-trideutero-4-trideuteromethyl-pentyl)-23E-ene-26,27-hexafluorocholecalciferol]
MTD at 4 days [1, 3]: 0.1 µg/kg

Compound: [2H]C([2H])([2H])C(O)(CCCC(C)(C/C=C/C(O)(C(F)(F)F)C(F)(F)F)[C@H]1CCC2/C(=C/C=C3C[C@@H](O)C[C@H](O)C3)CCC[C@@]21C)C([2H])([2H])[2H] (stereo partly drawn) [Compound 20, 1,25-Dihydroxy-20S-20-(4-hydroxy-5,5,5-trideutero-4-trideuteromethyl-pentyl)-23E-ene-26,27-hexafluoro-19-nor-cholecalciferol]
MTD at 4 days [1, 3]: 0.1 µg/kg

Compound: [2H]C([2H])([2H])C(O)(CCCC(C)(CC#CC(O)(C(F)(F)F)C(F)(F)F)[C@H]1CCC2/C(=C/C=C3/C[C@@H](O)C[C@H](O)C3=C)CCC[C@@]21C)C([2H])([2H])[2H] (stereo partly drawn) [Compound 22, 1,25-Dihydroxy-20S-20-(4-hydroxy-5,5,5-trideutero-4-trideuteromethyl-pentyl)-23-yne-26,27-hexafluorocholecalciferol]
MTD at 4 days [1, 3]: 0.3 µg/kg

Compound: [2H]C([2H])([2H])C(O)(CCCC(C)(CC#CC(O)(C(F)(F)F)C(F)(F)F)[C@H]1CCC2/C(=C/C=C3C[C@@H](O)C[C@H](O)C3)CCC[C@@]21C)C([2H])([2H])[2H] (stereo partly drawn) [Compound 23, 1,25-Dihydroxy-20S-20-(4-hydroxy-5,5,5-trideutero-4-trideuteromethyl-pentyl)-23-yne-26,27-hexafluoro-19-nor-cholecalciferol]
MTD at 4 days [1, 3]: 1 µg/kg

Compound: [2H]C([2H])([2H])C(O)(CCC[C@](C)(C/C=C\C(O)(C(F)(F)F)C(F)(F)F)[C@H]1CCC2/C(=C/C=C3C[C@@H](O)C[C@H](O)C3)CCC[C@@]21C)C([2H])([2H])[2H] (stereo partly drawn) [Compound 26, 1,25-Dihydroxy-20R-20-(4-hydroxy-5,5,5-trideutero-4-trideuteromethyl-pentyl)-23Z-ene-26,27-hexafluoro-19-nor-cholecalciferol]
MTD at 4 days [1, 3]: 0.3 µg/kg

IC50 ([2]; 120 h): 0.307 nM
Compound: [2H]C([2H])([2H])C(O)(CCC[C@](C)(C/C=C\C(O)(C(F)(F)F)C(F)(F)F)[C@H]1CCC2/C(=C/C=C3/C[C@@H](O)C[C@H](F)C3=C)CCC[C@@]21C)C([2H])([2H])[2H] (stereo partly drawn) [Compound 27, 1α-Fluoro-25-hydroxy-20R-20-(4-hydroxy-5,5,5-trideutero-4-trideuteromethyl-pentyl)-23Z-ene-26,27-hexafluorocholecalciferol]

Compound: [2H]C([2H])([2H])C(O)(CCC[C@](C)(C/C=C/C(O)(C(F)(F)F)C(F)(F)F)[C@H]1CCC2/C(=C/C=C3/C[C@@H](O)C[C@H](O)C3=C)CCC[C@@]21C)C([2H])([2H])[2H] (stereo partly drawn) [Compound 28, 1,25-Dihydroxy-20R-20-(4-hydroxy-5,5,5-trideutero-4-trideuteromethyl-pentyl)-23E-ene-26,27-hexafluorocholecalciferol]
MTD at 4 days [1, 3]: 0.3 µg/kg

Compound: [2H]C([2H])([2H])C(O)(CCC[C@](C)(C/C=C/C(O)(C(F)(F)F)C(F)(F)F)[C@H]1CCC2/C(=C/C=C3C[C@@H](O)C[C@H](O)C3)CCC[C@@]21C)C([2H])([2H])[2H] (stereo partly drawn) [Compound 29, 1,25-Dihydroxy-20R-20-(4-hydroxy-5,5,5-trideutero-4-trideuteromethyl-pentyl)-23E-ene-26,27-hexafluoro-19-nor-cholecalciferol]
MTD at 4 days [1, 3]: 0.1 µg/kg

IC50 ([2]; 120 h): 0.012 nM
Compound: [2H]C([2H])([2H])C(O)(CCC[C@](C)(C/C=C/C(O)(C(F)(F)F)C(F)(F)F)[C@H]1CCC2/C(=C/C=C3/C[C@@H](O)C[C@H](F)C3=C)CCC[C@@]21C)C([2H])([2H])[2H] (stereo partly drawn) [Compound 30, 1α-Fluoro-25-hydroxy-20R-20-(4-hydroxy-5,5,5-trideutero-4-trideuteromethyl-pentyl)-23E-ene-26,27-hexafluorocholecalciferol]

Compound: [2H]C([2H])([2H])C(O)(CCC[C@](C)(CC#CC(O)(C(F)(F)F)C(F)(F)F)[C@H]1CCC2/C(=C/C=C3/C[C@@H](O)C[C@H](O)C3=C)CCC[C@@]21C)C([2H])([2H])[2H] (stereo partly drawn) [Compound 31, 1,25-Dihydroxy-20R-20-(4-hydroxy-5,5,5-trideutero-4-trideuteromethyl-pentyl)-23-yne-26,27-hexafluorocholecalciferol]
MTD at 4 days [1, 3]: 0.3 µg/kg

Compound: [2H]C([2H])([2H])C(O)(CCC[C@](C)(CC#CC(O)(C(F)(F)F)C(F)(F)F)[C@H]1CCC2/C(=C/C=C3C[C@@H](O)C[C@H](O)C3)CCC[C@@]21C)C([2H])([2H])[2H] (stereo partly drawn) [Compound 32, 1,25-Dihydroxy-20R-20-(4-hydroxy-5,5,5-trideutero-4-trideuteromethyl-pentyl)-23-yne-26,27-hexafluoro-19-nor-cholecalciferol]
MTD at 4 days [1, 3]: 0.3 µg/kg

IC50 ([2]; 120 h): 0.0132 nM
Compound: [2H]C([2H])([2H])C(O)(CCC[C@](C)(CC#CC(O)(C(F)(F)F)C(F)(F)F)[C@H]1CCC2/C(=C/C=C3/C[C@@H](O)C[C@H](F)C3=C)CCC[C@@]21C)C([2H])([2H])[2H] (stereo partly drawn) [Compound 33, 1α-Fluoro-25-hydroxy-20R-20-(4-hydroxy-5,5,5-trideutero-4-trideuteromethyl-pentyl)-23-yne-26,27-hexafluorocholecalciferol]

Compound: (20S)-1,25-Dihydroxy-20-[(2E)-5,5,5-trifluoro-4-hydroxy-4-trifluoromethyl-pent-2-enyl]-cholecalciferol [Compound 6]
IC50 [2]: 0.044 nM
